# Paper PMC9005681, “Use of AD Informer Set compounds to explore validity of novel targets in Alzheimer's disease pathology” (Alzheimer's & Dementia : Translational Research & Clinical …, 2022)
# “And” between values parts separate entries of the source, which are not always exact repeats. Equal entries are not always repeated.
# Tests used:
# Assay in all cases: PDSP GPCR panel primary binding assays at 10 μM
# [1] = target: T1, cloned human or rodent CNS receptors, channels, and transporters (PDSP panel) (Homo sapiens, UniProt P11229); details: M1, primary assay
# T1 construct: expressed in transfected cells
# T1 sequence (P11229 1-460): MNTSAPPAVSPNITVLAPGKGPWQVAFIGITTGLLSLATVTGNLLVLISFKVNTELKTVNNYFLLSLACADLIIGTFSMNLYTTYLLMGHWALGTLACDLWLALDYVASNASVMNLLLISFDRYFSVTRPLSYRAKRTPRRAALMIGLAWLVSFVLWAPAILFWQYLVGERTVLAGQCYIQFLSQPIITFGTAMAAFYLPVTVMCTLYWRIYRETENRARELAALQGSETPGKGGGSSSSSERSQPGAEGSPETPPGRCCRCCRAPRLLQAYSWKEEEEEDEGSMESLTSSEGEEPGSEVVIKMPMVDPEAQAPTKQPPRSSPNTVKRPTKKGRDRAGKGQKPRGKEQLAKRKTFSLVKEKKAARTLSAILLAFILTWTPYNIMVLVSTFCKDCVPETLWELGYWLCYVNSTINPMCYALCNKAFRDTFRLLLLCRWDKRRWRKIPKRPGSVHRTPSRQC
# In short: (§1)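 Primary screen: 10 μM, quadruplicate, displacement of radio-labeled standard ligand. Hit cut-off >50% mean displacement → secondary 11-point dose-response, triplicate. H3, PBR, GABAA excluded from follow-up.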
# [2] = target: T2, cloned human or rodent CNS receptors, channels, and transporters (PDSP panel) (Homo sapiens, UniProt P21917); details: D4, primary assay
# T2 construct: expressed in transfected cells
# T2 sequence (P21917 1-419): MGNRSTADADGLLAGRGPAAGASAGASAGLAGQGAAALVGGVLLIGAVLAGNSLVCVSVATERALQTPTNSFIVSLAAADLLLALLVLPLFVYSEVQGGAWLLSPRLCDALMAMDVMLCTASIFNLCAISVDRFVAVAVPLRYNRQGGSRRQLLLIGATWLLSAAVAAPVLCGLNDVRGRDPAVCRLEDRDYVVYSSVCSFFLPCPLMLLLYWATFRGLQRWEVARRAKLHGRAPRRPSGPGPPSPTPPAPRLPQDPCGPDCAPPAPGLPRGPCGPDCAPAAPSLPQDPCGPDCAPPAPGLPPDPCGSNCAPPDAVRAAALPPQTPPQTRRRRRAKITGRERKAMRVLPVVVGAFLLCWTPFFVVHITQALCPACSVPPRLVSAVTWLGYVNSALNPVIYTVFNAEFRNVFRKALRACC
# In short: as §1
# [3] = target: T3, cloned human or rodent CNS receptors, channels, and transporters (PDSP panel) (Homo sapiens, UniProt P25021); details: H2, primary assay
# T3 construct: expressed in transfected cells
# T3 sequence (P25021 whole entry): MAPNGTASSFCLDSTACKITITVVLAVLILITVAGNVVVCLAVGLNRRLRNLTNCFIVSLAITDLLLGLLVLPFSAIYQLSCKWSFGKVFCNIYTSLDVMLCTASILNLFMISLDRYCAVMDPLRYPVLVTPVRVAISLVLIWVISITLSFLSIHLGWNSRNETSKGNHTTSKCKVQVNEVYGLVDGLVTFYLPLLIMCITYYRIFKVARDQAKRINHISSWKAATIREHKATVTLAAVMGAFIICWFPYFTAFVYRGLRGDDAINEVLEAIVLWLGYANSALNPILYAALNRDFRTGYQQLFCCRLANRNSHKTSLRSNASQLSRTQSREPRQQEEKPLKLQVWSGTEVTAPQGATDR
# In short: as §1
# [4] = target: T4, cloned human or rodent CNS receptors, channels, and transporters (PDSP panel) (Homo sapiens, UniProt P28223); details: 5-HT2A, primary assay
# T4 construct: expressed in transfected cells
# T4 sequence (P28223 whole entry): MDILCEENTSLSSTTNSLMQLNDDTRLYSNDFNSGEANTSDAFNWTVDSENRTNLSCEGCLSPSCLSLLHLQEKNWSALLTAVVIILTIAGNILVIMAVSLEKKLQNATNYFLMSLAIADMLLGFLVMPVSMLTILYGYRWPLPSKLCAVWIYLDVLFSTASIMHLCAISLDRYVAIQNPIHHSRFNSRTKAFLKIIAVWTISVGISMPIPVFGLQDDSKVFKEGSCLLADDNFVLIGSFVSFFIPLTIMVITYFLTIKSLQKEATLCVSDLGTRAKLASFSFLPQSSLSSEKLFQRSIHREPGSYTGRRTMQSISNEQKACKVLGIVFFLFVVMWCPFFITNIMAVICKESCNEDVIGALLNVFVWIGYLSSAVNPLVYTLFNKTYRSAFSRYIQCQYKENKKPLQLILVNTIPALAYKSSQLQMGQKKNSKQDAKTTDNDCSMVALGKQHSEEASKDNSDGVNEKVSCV
# In short: as §1
# [5] = target: T5, cloned human or rodent CNS receptors, channels, and transporters (PDSP panel) (Homo sapiens, UniProt P35462); details: D3, primary assay
# T5 construct: expressed in transfected cells
# T5 sequence (P35462 whole entry): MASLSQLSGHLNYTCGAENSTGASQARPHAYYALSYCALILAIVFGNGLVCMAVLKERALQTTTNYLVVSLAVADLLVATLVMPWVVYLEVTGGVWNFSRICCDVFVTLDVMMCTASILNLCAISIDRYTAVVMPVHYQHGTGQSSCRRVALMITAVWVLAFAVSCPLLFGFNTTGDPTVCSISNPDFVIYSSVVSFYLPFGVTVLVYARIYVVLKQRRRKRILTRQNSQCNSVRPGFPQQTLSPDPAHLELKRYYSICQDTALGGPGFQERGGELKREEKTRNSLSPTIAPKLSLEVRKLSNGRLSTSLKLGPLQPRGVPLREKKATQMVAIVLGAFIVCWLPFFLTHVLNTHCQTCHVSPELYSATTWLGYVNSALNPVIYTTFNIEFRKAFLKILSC
# In short: as §1
# [6] = target: T6, cloned human or rodent CNS receptors, channels, and transporters (PDSP panel) (Homo sapiens, UniProt P41145); details: KOR, primary assay
# T6 construct: expressed in transfected cells
# T6 sequence (P41145 whole entry): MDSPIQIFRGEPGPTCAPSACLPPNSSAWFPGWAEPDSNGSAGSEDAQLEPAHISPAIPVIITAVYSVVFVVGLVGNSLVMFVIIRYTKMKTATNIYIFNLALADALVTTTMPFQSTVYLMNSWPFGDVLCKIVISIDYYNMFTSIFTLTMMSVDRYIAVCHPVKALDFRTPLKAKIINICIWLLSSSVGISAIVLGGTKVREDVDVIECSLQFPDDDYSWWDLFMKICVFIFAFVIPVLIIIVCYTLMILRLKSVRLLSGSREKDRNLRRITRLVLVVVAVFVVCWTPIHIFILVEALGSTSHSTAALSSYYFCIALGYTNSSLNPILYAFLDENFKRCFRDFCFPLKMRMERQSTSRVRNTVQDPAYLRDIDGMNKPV
# In short: as §1
# [7] = target: T7, cloned human or rodent CNS receptors, channels, and transporters (PDSP panel) (Homo sapiens, UniProt P46098); details: 5-HT3, primary assay
# T7 construct: expressed in transfected cells
# T7 sequence (P46098 24-478): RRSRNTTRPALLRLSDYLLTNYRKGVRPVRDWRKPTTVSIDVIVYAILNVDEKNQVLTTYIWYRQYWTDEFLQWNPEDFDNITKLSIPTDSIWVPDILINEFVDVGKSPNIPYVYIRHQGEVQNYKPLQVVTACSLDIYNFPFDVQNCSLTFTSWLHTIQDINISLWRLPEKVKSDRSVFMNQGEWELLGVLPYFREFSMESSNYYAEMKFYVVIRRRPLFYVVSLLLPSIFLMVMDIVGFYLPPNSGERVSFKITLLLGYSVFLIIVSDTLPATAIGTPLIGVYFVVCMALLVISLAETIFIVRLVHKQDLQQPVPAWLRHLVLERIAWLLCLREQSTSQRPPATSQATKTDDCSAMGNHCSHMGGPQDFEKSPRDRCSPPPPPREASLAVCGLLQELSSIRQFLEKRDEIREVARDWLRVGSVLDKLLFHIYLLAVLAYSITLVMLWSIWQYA
# In short: as §1
# [8] = target: T8, cloned human or rodent CNS receptors, channels, and transporters (PDSP panel) (Rattus norvegicus, UniProt P16257); details: PBR, primary assay
# T8 construct: expressed in transfected cells
# In short: as §1
substance,measurement,setting,value
MDL 28170 [UNC10302675A],Mean %,[1]; mean inhibition,-11.2%
same,Inhibition 1,[1]; replicate 1,-2.73%
same,Inhibition 2,[1]; replicate 2,-6.87%
same,Inhibition 3,[1]; replicate 3,-20.6%
same,Inhibition 4,[1]; replicate 4,-14.58%
same,Mean %,[2]; mean inhibition,0.31%
same,Inhibition 1,[2]; replicate 1,10.14%
same,Inhibition 2,[2]; replicate 2,-3.06%
same,Inhibition 3,[2]; replicate 3,-7.08%
same,Inhibition 4,[2]; replicate 4,1.24%
same,Mean %,[3]; mean inhibition,-17.24%
same,Inhibition 1,[3]; replicate 1,-6.35%
same,Inhibition 2,[3]; replicate 2,-24.37%
same,Inhibition 3,[3]; replicate 3,-15.47%
same,Inhibition 4,[3]; replicate 4,-22.78%
same,Mean %,[4]; mean inhibition,-2.25%
same,Inhibition 1,[4]; replicate 1,10.17%
same,Inhibition 2,[4]; replicate 2,-7.92%
same,Inhibition 3,[4]; replicate 3,-7.75%
same,Inhibition 4,[4]; replicate 4,-3.48%
same,Mean %,[5]; mean inhibition,-4.37%
same,Inhibition 1,[5]; replicate 1,0.36%
same,Inhibition 2,[5]; replicate 2,5.37%
same,Inhibition 3,[5]; replicate 3,-17.38%
same,Inhibition 4,[5]; replicate 4,-5.81%
same,Mean %,[6]; mean inhibition,8.82%
same,Inhibition 1,[6]; replicate 1,3.47%
same,Inhibition 2,[6]; replicate 2,2.13%
same,Inhibition 3,[6]; replicate 3,10.86%
same,Inhibition 4,[6]; replicate 4,18.81%
same,Mean %,[7]; mean inhibition,-2.62%
same,Inhibition 1,[7]; replicate 1,-0.93%
same,Inhibition 2,[7]; replicate 2,2.95%
same,Inhibition 3,[7]; replicate 3,-29.22%
same,Inhibition 4,[7]; replicate 4,16.71%
same,Mean %,[8]; mean inhibition,14.47% and 16.31%
same,Inhibition 1,[8]; replicate 1,31.01% and 31.3%
same,Inhibition 2,[8]; replicate 2,3.06% and 12.16%
same,Inhibition 3,[8]; replicate 3,7.19% and 13.84%
same,Inhibition 4,[8]; replicate 4,16.6% and 7.94%
